Data set [1] can be described thus: Metabolic stability test using human liver microsome. The format is in vitro ADME. To be noted: NADPH, 37° C., 25 minutes versus 0 minute, LC/MS peak area. As to the method:
For the compounds synthesized according to the method of the above Examples and the compounds of formula (B) (the compounds disclosed in WO2002/070517), the metabolic stability test using the human liver microsome was performed and the residual rate of each compound was calculated.
To a human liver microsome solution (950 μL) was added a test compound solution (10 μL, 100 μM, acetonitrile solution) on an ice bath and the solution was divided into two equal parts, solution A and solution B. Note that the composition of the human liver microsome solution was as follows.
20 mg/mL protein human liver microsome (Xenotech LLC Lenexa, US): 10 μL 500 mM potassium phosphate buffer solution (pH 7.4): 200 μL 10 mM EDTA solution: 100 μL 60 mM MgCl2 solution: 50 μL 100 mM glucose-6-phosphate solution: 50 μL 100 I.U./mL glucose-6-phosphate dehydrogenase solution: 10 μL purified water: 530 μL
To the solution A (480 μL) was added acetonitrile (500 μL) on an ice bath, and then 25 mM NADPH solution (20 μL) was added. After vortexing, the mixture was centrifuged (3,000 rpm) at 4° C. for 10 minutes, and the supernatant was taken as the sample at the reaction time of 0 minute.
To the solution B (480 μL) was added 25 mM NADPH solution (20 μL). The mixture was incubated at 37° C. for 25 minutes. The reaction was quenched with acetonitrile (500 μL) and vortexing. The mixture was centrifuged (3,000 rpm) at 4° C. for 10 minutes, and the supernatant was taken as the sample at the reaction time of 25 minutes.
LC/MS measurement was performed for the samples at the reaction time of 0 minute and the reaction time of 25 minutes. Based on the peak area of the target molecular weight in the MS measurement, the residual rate of the sample at the reaction time of 25 minutes to the sample at the reaction time of 0 minute was calculated in percentage.

The target of data set [2] is T1, cathepsin K (Homo sapiens, UniProt P43235).
T1 construct: the active enzyme was obtained as the enzyme fraction by using detergent containing lysis buffer; made in house; host or cells: HEK293T (GenHunter Corporation), transient expression; detergent lysate used as enzyme fraction
T1 sequence (P43235 115-329): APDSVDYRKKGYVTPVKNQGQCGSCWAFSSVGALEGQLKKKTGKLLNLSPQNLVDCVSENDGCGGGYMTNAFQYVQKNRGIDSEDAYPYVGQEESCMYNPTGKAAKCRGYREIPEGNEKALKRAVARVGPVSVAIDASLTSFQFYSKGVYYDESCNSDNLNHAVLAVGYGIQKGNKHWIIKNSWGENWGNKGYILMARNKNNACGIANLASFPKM
Nature of the data set: Cathepsin K inhibitory activity (fluorescent substrate Z-Leu-Arg-MCA). The class given is biochemical. As to conditions: enzyme expressed in HEK293T; 15 min preincubation, 30 min reaction at room temperature, pH 5.5; read-out: Activity Intensity (cathepsin K inhibitory activity, pIC50 class) (converted). In a few lines:
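Enzyme was HEK293T-expressed cathepsin K in pH 5.5 acetate buffer with 2 mM DTT, preincubated 15 min at room temperature with compound. Reaction started with Z-Leu-Arg-MCA (solution prepared at 10 μM), run 30 min, and AMC fluorescence read at 355/460 nm. IC50 taken from the curve of % inhibition vs DMSO.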

SMILES strings stand for the structures. Bounds are passed on as bounds.

Consider `CC[C@@H](CNc1ccc(N2CCC[C@@H](C(=O)O)C2)cc1)NC(=O)[C@H](CC(C)(C)F)N[C@@H](c1ccccc1)C(F)(F)F` [Compound 152], for which, in data set [1], the “Residual Rate at 25 minutes (%)” value is listed as 88%. In addition, the IC50 in data set [2] was at most 3.16 nM.

On to `CC[C@@H](CNc1ccc(OC(C)(C)C(=O)O)cc1OC)NC(=O)[C@H](CC(C)(C)F)N[C@@H](c1ccccc1)C(F)(F)F` [Compound 131, 2-{4-[((2S)-2-{(2S)-2-[((1S)-2,2,2-trifluoro-1-phenylethyl)amino]-4-fluoro-4-methylpentanoylamino}butyl)amino]-3-methoxyphenoxy}-2-methylpropanoic acid], for which the “Residual Rate at 25 minutes (%)” value in data set [1] is listed as 123%. The IC50 in data set [2] is 3.16 to 31.6 nM.

With `CC[C@@H](CNc1ccc(N2CCC[C@H](C(=O)O)C2)cc1)NC(=O)[C@H](CC(C)C)N[C@@H](c1ccccc1)C(F)(F)F` [Compound 148], in data set [1], the “Residual Rate at 25 minutes (%)” value was 85%. For the same molecule, the IC50 in data set [2] is at most 3.16 nM.

As for `CC(C)C[C@H](N[C@@H](c1ccccc1)C(F)(F)F)C(=O)N[C@@H](CCCC(=O)O)CNc1ccc(N2CCOCC2)cc1` [Compound 159, (5S)-5-{(2S)-2-[((1S)-2,2,2-trifluoro-1-phenylethyl)amino]-4-methylpentanoylamino}-6-[(4-morpholin-4-ylphenyl)amino]hexanoic acid], in data set [1], the “Residual Rate at 25 minutes (%)” value is given as 100%. The IC50 in data set [2] was at most 3.16 nM.

In the case of `CC(C)C[C@H](N[C@@H](c1ccccc1)C(F)(F)F)C(=O)N[C@@H](CCCCN)CNc1ccc(N2CCOCC2)cc1` [Compound 126], in data set [1], the “Residual Rate at 25 minutes (%)” value was 90%. Moreover, the IC50 in data set [2] is at most 3.16 nM.

For `CC(C)C[C@H](N[C@@H](c1ccccc1)C(F)(F)F)C(=O)N[C@@H](CC#N)CNc1ccc(N2CCOCC2)cc1` [Compound 93], in data set [1], the “Residual Rate at 25 minutes (%)” value turned out to be 63%. The IC50 in data set [2] is 3.16 to 31.6 nM.

Consider `CC(C)C[C@H](N[C@@H](c1ccccc1)C(F)(F)F)C(=O)N[C@@H](CCCN)CNc1ccc(N2CCOCC2)cc1` [Compound 127], for which, in data set [1], the “Residual Rate at 25 minutes (%)” value is given as 87%. The IC50 in data set [2] is 3.16 to 31.6 nM.

`CC[C@@H](CNc1ccc(OCC(=O)O)cc1OC)NC(=O)[C@H](CC(C)C)N[C@@H](c1ccc(OC)nc1)C(F)(F)F` [Compound 120]: the “Residual Rate at 25 minutes (%)” value in data set [1] is given as 108%. Besides, the IC50 in data set [2] was at most 3.16 nM.

In the case of `CC[C@@H](CNc1ccc(OC(F)(F)C(=O)O)cc1OC)NC(=O)[C@H](CC(C)(C)F)N[C@@H](c1ccccc1)C(F)(F)F` [Compound 141], in data set [1], the “Residual Rate at 25 minutes (%)” value was 70%. In addition, the IC50 in data set [2] was 31.6 to 10000 nM.

`CC[C@@H](CNc1ccc(N2CCO[C@@H](C(=O)O)C2)cc1)NC(=O)[C@H](CC(C)C)N[C@@H](c1ccccc1)C(F)(F)F` [Compound 150]: in data set [1], the “Residual Rate at 25 minutes (%)” value is listed as 96%. Further, the IC50 in data set [2] was at most 3.16 nM.

In the case of `CC[C@@H](CNc1ccc(N2CCC(C(=O)O)CC2)cc1)NC(=O)[C@H](CC(C)(C)F)N[C@@H](c1ccccc1)C(F)(F)F` [Compound 147], the “Residual Rate at 25 minutes (%)” value in data set [1] was 80%. In addition, the IC50 in data set [2] was at most 3.16 nM.

Turning to `CN(C)C[C@@H](CNc1ccc(N2CCOCC2)cc1)NC(=O)[C@H](CC(C)(C)F)N[C@@H](c1ccccc1)C(F)(F)F` [Compound 107], the “Residual Rate at 25 minutes (%)” value in data set [1] is 50%. The IC50 in data set [2] was at most 3.16 nM.

For the molecule `CC(C)C[C@H](N[C@@H](c1ccccc1)C(F)(F)F)C(=O)N[C@@H](CCCNC(=N)N)CNc1ccc(N2CCOCC2)cc1` [Compound 101], in data set [1], the “Residual Rate at 25 minutes (%)” value is given as 67%. The IC50 in data set [2] was at most 3.16 nM.

In the case of `CC(C)C[C@H](N[C@@H](c1ccccc1)C(F)(F)F)C(=O)N[C@@H](CCN)CNc1ccc(N2CCOCC2)cc1` [Compound 129], the “Residual Rate at 25 minutes (%)” value in data set [1] is recorded as 75%. Also, the IC50 in data set [2] is 3.16 to 31.6 nM.

As to `CC[C@@H](CNc1ccc(N2CCC[C@@H](C(=O)O)C2)cc1)NC(=O)[C@H](CC(C)C)N[C@@H](c1ccccc1)C(F)(F)F` [Compound 149], in data set [1], the “Residual Rate at 25 minutes (%)” value was 87%. The IC50 in data set [2] was at most 3.16 nM.

In the case of `CC[C@@H](CNc1ccc(OCC(=O)O)cc1OC)NC(=O)[C@H](CC(C)(C)F)N[C@@H](c1ccccc1)C(F)(F)F` [Compound 117, 2-{4-[((2S)-2-{(2S)-2-[((1S)-2,2,2-trifluoro-1-phenylethyl)amino]-4-fluoro-4-methylpentanoylamino}butyl)amino]-3-methoxyphenoxy}acetic acid], in data set [1], the “Residual Rate at 25 minutes (%)” value was 111%. The IC50 in data set [2] is at most 3.16 nM.

With `CC[C@@H](CNc1ccc(OC(C)C(=O)O)cc1OC)NC(=O)[C@H](CC(C)(C)F)N[C@@H](c1ccccc1)C(F)(F)F` (stereo partly drawn) [Compound 140, 2-{4-[((2S)-2-{(2S)-2-[((1S)-2,2,2-trifluoro-1-phenylethyl)amino]-4-fluoro-4-methylpentanoylamino}butyl)amino]-3-methoxyphenoxy}propanoic acid], in data set [1], the “Residual Rate at 25 minutes (%)” value is recorded as 101%. Moreover, the IC50 in data set [2] was 3.16 to 31.6 nM.
